According to patent US20240150709A1, “COMPOSITIONS AND METHODS FOR MAKING PARASYMPATHETIC NEURONS” (University of Georgia Research Foundation, Inc., priority 2022, published 2024):

Columns and labels:
[1] = tested on: 3T3-L1-derived white adipocytes; test: Lipolysis assay, 3T3-L1-derived white adipocytes alone; assay type: cell-based, mouse; details: 10 μM isoproterenol; differentiated adipocytes alone
Method: 3T3-L1 were seeded at 20×10^3 cells/cm^2 and fed until 80% confluency, which was defined as day 0. From day 0-3, cells were fed with the differentiation medium containing DMEM (Gibco, 11965118), 10% FBS, 0.5 mM IBMX (Cayman, 13347), 1 μM dexamethasone (Sigma, D2915), and 10 μg/ml insulin (Sigma, 19278). From day 3-6, cells were fed with post-differentiation medium containing DMEM, 10% FBS, and 10 μg/ml insulin. After day 6, cells were maintained in DMEM with 10% FBS until the desired timepoints. To begin with, adipocyte culture medium was replaced with prewarmed lipolysis medium containing 0.5% BSA in DMEM, and cells were incubated for 4 hours at 37° C. After 4 hours, the lipolysis medium was replaced with fresh prewarmed lipolysis medium with test drugs and incubate for 90 minutes at 37° C. […] Glycerol release in adipocyte cultured medium was measured using Adipolysis Assay Kit (Cayman, 10009381) according to manufacturer's instruction.

[2] = tested on: 3T3-L1-derived white adipocytes; test: Lipolysis assay, white adipocytes with or without parasymN co-culture; assay type: cell-based, mouse
Method: To begin with, adipocyte culture medium was replaced with prewarmed lipolysis medium containing 0.5% BSA in DMEM, and cells were incubated for 4 hours at 37° C. After 4 hours, the lipolysis medium was replaced with fresh prewarmed lipolysis medium with test drugs and incubate for 90 minutes at 37° C. Then, the cell culture medium was collected for the assay or stored at −20° C. for long-term storage. Glycerol release in adipocyte cultured medium was measured using Adipolysis Assay Kit (Cayman, 10009381) according to manufacturer's instruction.
To test whether adipose functions can be regulated by parasymN activity, the lipolytic activity was compared.

[3] = tested on: non-neural contaminating cell types; test: Purification of non-neural contaminating cells in parasymN differentiation; assay type: cell-based, human; details: AraC added during the differentiation
Method: FIG. 13A illustrates that cell cycle inhibitor AraC was added during the differentiation.

symN = test: 6-OHDA toxicity in symN (western blot, immunostaining, microscopy); assay type: cell-based, human
Method: Day 30 parasymNs and symNs on 6-well plates were prepared for sample collection. One well for each sample. Cells were washed by PBS and scraped after incubating with lysis buffer contains RIPA buffer (Sigma-Aldrich, R0278, 1×), PMSF protease inhibitor (Thermo Fisher Scientific, 36978, 1 mM) and PhosSTOP phosphatase inhibitor (Sigma-Aldrich, 4906845001). Protein concentration was measured using Bradford reagent (Bio-Rad, 5000006). Proteins were loaded as 20 μg/well and ran in 12% acrylamide gel. After the transfer, nitrocellulose membranes were blocked by 5% skim milk in TBST.
Membranes were incubated with primary antibodies overnight at 4° C. The next day, membranes were washed by PBST and incubated with secondary antibodies for one hour at room temperature. Images were taken using the iBright western blot imager (Invitrogen, FL1500).
(§1) Cells were fixed by 4% paraformaldehyde for 20 minutes and washed twice by PBS. Fixed cells were permeabilized by 0.3% Triton, 1% BSA and 3% goat or donkey serum in 1× PBS for 20 minutes, and incubated with primary antibodies overnight at 4° C. The next day, cells were washed and incubated with secondary antibodies for one hour at room temperature. Lastly, cells were washed and incubated with DAPI (Sigma, D9542, 1:1000) for 15 minutes at room temperature. Fluorescent images were taken using the Lionheart FX Automated Microscope.

hPSC-symNs = test: MEA neural activity of hPSC-symNs; assay type: cell-based, human; details: 6-OHDA 100 μM, normalized to vehicle
Method: (§2) For neural activity measurements, day 16 SCPs were plated on PO/LM/FN coated MEA plates (Axion BioSystems, BioCircuit or CytoView) at 100×10^3 cells/cm^2. […] Activity of differentiated parasymNs or CMs/SMCs on desired timepoints was measured using a MEA plate reader (Axion BioSystems, Maestro Pro) under the neural detection mode or cardiac detection mode, respectively, according to manufacturer's instruction.

parasymN = test: 6-OHDA toxicity in parasymN (microscopy); assay type: cell-based, human; details: parasymN after 6-OHDA
Method: as §1

hPSC-parasymNs = test: MEA neural activity of hPSC-parasymNs; assay type: cell-based, human; details: for parasymN activity (relative MFR: mean firing rate): 1 μM vs control, day 30 hPSC-parasymNs
Method: as §2

hPSC-CMs = details: nicotine 1 μM; co-culture with hPSC-parasymNs; MEA
Method: CM differentiation. […] Briefly, 80-90% confluent H9 ESCs were replated at a 1 to 5 ratio on Matrigel (Corning, 1:20)-coated plates. When cells reached 90% confluency, medium was changed to CDBM base medium, that contains DMEM/F12 (Gibco, 11320033), 64 mg/L ascorbic acid, 13.6 μg/L sodium selenium (Sigma, S5261), 10 μg/ml transferrin (Sigma, T3309) and Chemically Defined Lipid Concentrate (Gibco, 11905031). 5 μM CHIR99021 was added to CDBM medium on day 0. 0.6 U/ml heparin ([sequence] Technologies, 07980) was added to CDBM medium on day 1, 5, 6. 0.6 U/ml heparin and 3 μM XAV were added to CDBM medium on day 2, 3, 4. After day 7, medium was changed to CM maintenance medium that contains CDBM base, 20 μg/ml insulin (Sigma, 1-034), and 2% FBS. CMs were replated on day 10 using accutase at 200×10^3 cells/cm^2 on Matrigel-coated plates. […]
as §2

mouse salivary cell = test: Calcium imaging of parasymN and mouse salivary cell coculture; assay type: cell-based; details: coculture with parasymN; nicotine stimulation
From the text: FIG. 14B is a plot showing calcium imaging for salivary cell only upon nicotine stimulation.

Compound: CC(C)NCC(O)c1ccc(O)c(O)c1 (stereo not shown) [isoproterenol]
- lipolytic activity (glycerol release) [1]: displayed lipolytic activity
- lipolytic levels induced by isoproterenol (normalized glycerol release) ([2]; 10 μM isoproterenol, adipocytes co-cultured with parasymNs): counteracted

Compound: Nc1ccn([C@@H]2O[C@H](CO)[C@@H](O)[C@@H]2O)c(=O)n1 [AraC]
- contaminating cells by immunostaining [3]: reduced

Compound: NCCc1cc(O)c(O)cc1O [6-OHDA]
- cell death markers PUMA/c-Cas3, western blot (symN; 12 hours after treating parasymN/symN with 6-OHDA): increased only in symN
- cell death marker c-Cas3, percentage of cells by immunostaining (symN; 24 hours after treating parasymN/symN with 6-OHDA): increased only in symN
- neural morphology by microscopy (symN; symN after 6-OHDA): damaged neural morphology
- relative MFR over 12 hours after 6-OHDA (hPSC-symNs): displayed early hyperactivity
- neural morphology by microscopy (parasymN): almost intact
- relative MFR over 12 hours after 6-OHDA (hPSC-parasymNs; 6-OHDA 100 μM, hPSC-parasymNs, normalized to vehicle): remained unaffected

Compound: CC(C[N+](C)(C)C)OC(N)=O (stereo not shown) [BeCh, bethanechol]
- parasymN activity (relative MFR: mean firing rate) (hPSC-parasymNs; MEA): activated

Compound: CN1CCCC1c1cccnc1 (stereo not shown) [nicotine]
- beating of hPSC-CMs (relative beats/min) (hPSC-CMs): decreased
- salivary cell activity (calcium imaging) (mouse salivary cell): increased
- lipolysis levels (glycerol release) ([2]; 1 μM nicotine, adipocytes only or parasymN co-cultured): remained unchanged
- parasymN activity (relative MFR: mean firing rate) (hPSC-parasymNs; MEA): further inducible

Compound: angiotensin II (DRVYIHPF; Angiotensin-2; UniProt P01019 25-32, looked up) [Ang II, angiotensin II of the renin-angiotensin-aldosterone system]
- parasymN activity (fold change of MFR) (hPSC-parasymNs; angiotensin II vs control (DMSO), MEA): decreased

Compound: CN1[C@@H]2CC[C@H]1C[C@@H](OC(=O)C(CO)c1ccccc1)C2 (stereo partly shown) [atropine]
- parasymN activity (relative MFR: mean firing rate) (hPSC-parasymNs; MEA): inactivated
